Source: patent US5399487A, “6-peptidylamino-1-naphthalenesulfonamides useful as fluorogenic proteolytic enzyme substrates” (Haematologic Technologies, Inc., priority 1993, dated 1995)

Tests used:
factor VIIa [1] = test: Factor VIIa substrate hydrolysis in presence and absence of tissue factor (FIG. 2); assay type: biochemical; settings: with vs without tissue factor
Excerpt: (§1) When coupled to methanesulfonyl-D-leucinyl-glycinyl-arginine(Mes-D-Leu-Gly-Arg), 6-amino-1-(N,N-diethyl)napthalenesulfonamide the resulting substrate yielded significant reactivity with factor VIIa. This substrate was sufficiently reactive with factor VIIa to allow reliable quantitation of factor VIIa activity at concentrations of about 10^-9 M. Further, this substrate was useful for the measurement of factor VIIa activity when it was bound to its co-factor protein tissue factor. The interaction of tissue factor with factor VIIa enhanced the factor VIIa dependent substrate hydrolysis by 120 fold. Thus, the invention provides unique substrates suitable for measuring both the activity of factor VIIa directly and in complex reactions involving the interaction between tissue factor and factor VIIa.
(§2) The binding of factor VIIa to tissue factor was analyzed by factor VIIa substrate hydrolysis when complexed with tissue factor. Tissue factor was relipidated into PC or PCPS vesicles as described above. The final concentration of tissue factor and phospholipid used for all binding studies was 2 nM and 200 μM respectively. In control experiments where tissue factor was in excess, 50 nM tissue factor and 200 μM PCPS vesicles were used. Recombinant factor VIIa (0.5 to 20 nM) was added to assembled TF/phospholipid complex and incubated for 15 minutes at 37° C. in HBS. The reaction was started by the addition of substrate (40 μM final) and the rate of substrate hydrolysis as reported by an increase in fluorescent intensity was recorded as described above in Example 5. The instrument was standardized daily using a 1 μM stock of the 6-amino-1-(N,N-diethyl)napthalenesulfonamide in HBS at 37° C. as described above.
(§3) The increase in the rate of factor VIIa substrate hydrolysis, both in the presence and absence of tissue factor, is linear over the concentration range tested, as shown in FIG. 2. […] In FIG. 2, filled triangles represent the rate of substrate hydrolysis as a function of increasing factor VIIa concentrations with an excess of tissue factor ([…]) in the assay. […]

factor VIIa [2] = target: T1, factor VIIa (Homo sapiens, UniProt P08709); test: as above; assay type: biochemical
T1 construct: directly measure the enzymatic activity of factor VIIa in the presence and absence of tissue factor and phospholipid
T1 sequence (P08709 213-466 limits assumed): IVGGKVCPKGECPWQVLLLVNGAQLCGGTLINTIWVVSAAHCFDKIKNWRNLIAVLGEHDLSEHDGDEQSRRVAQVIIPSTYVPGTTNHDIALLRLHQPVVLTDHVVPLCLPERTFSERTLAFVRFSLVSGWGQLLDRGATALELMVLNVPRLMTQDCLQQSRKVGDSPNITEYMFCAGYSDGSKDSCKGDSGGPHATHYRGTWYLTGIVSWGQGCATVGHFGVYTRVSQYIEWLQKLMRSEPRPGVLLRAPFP
T1 sequence (P08709 61-212 limits assumed): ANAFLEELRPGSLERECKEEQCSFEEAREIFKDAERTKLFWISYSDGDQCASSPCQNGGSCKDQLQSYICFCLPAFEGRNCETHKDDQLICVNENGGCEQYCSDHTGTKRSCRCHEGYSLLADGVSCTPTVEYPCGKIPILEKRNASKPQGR
Excerpt: as §1, §2, §3

CCN(CC)S(=O)(=O)c1cccc2cc(NC(=O)[C@H](CCCNC(=N)N)NC(=O)CNC(=O)[C@@H](CC(C)C)NS(C)(=O)=O)ccc12 [MesD-LPR-ANSN(C2 H5)2, 6-(Mes-D-Leu-Gly-Arg)amino-1-(N,N-diethyl)napththalenesulfonamide]
enhancement of factor VIIa dependent substrate hydrolysis by tissue factor (factor VIIa [1]; listed as 6-(Mes-D-Leu-Gly-Arg)amino-1-(N,N-diethyl)naphthalenesulfonamide): 120 fold | enhancement of factor VIIa dependent substrate hydrolysis by tissue factor (factor VIIa [1]; listed as factor VIIa substrate): > 100 fold | factor VIIa concentration allowing reliable quantitation of factor VIIa activity (factor VIIa [2]): about 10^-9 M
